Patent US11679107B2 (Eisai R&D Management Co., Ltd., priority 2018, dated 2023)
Like-named read-outs stand apart in the source and are kept apart here.

Legend:
[1] = tested on: Panc 05.04 cells (SF3b K700E mutant); experiment: Cell proliferation and viability, CellTiter-Glo, 72 hours; assay type: cell-based; conditions: for GI50: geometric mean
Summary of the method: (§1)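 Cells grown in RPMI-1640 with 10% FBS (Panc 05.04 with added insulin, 15% FBS total) were exposed to an 11-point half-log dilution, typically 10 μM–100 pM, at 0.1% DMSO for 72 h at 37 °C. ATP content was read by CellTiter-Glo luminescence. Percent inhibition was set against a time-zero plate and DMSO vehicle wells, on a −100% (cidal) to 100% (uninhibited growth) scale.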

[2] = tested on: NCI-H1568 cells (high MCL1); experiment: as above; assay type: cell-based; conditions: for GI50: geometric mean
Summary of the method: as §1

SF3b complexes = molecular target: T1, SF3b complexes (Homo sapiens, UniProt O75533+Q7RTV0); experiment: Scintillation proximity assay (SPA) with [3H]-labelled pladienolide probe; assay type: binding; conditions: SF3B1 (WT); geometric mean; read-out: SPA-ATS GMean IC50 (nM) SF3B1 (WT)
T1 construct: endogenous in cells; host or cells: Nuclear extracts; A HeLa S3 extract preparation is described for the in vitro splicing assay
Summary of the method: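 SF3b complexes captured from nuclear extracts on anti-SF3B1 antibody SPA beads; test compounds pre-incubated 30 min before 2.5 nM [3H]-pladienolide probe added, then 30 min incubation. Bound probe read by scintillation; values from non-linear regression of concentration–response curves.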

[3] = tested on: Ad2 variant pre-mRNAs spliced in HeLa S3 nuclear extracts; experiment: In vitro splicing assay (IVS), RT-qPCR of spliced product; assay type: biochemical; conditions: for IC50: geometric mean; for Ratio Ad2.1/2.2: ratio of IVS IC50 Ad2.1 to Ad2.2
Summary of the method: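 Ad2 variant pre-mRNA (2 ng) with FTZΔi control RNA in HeLa S3 nuclear extract (8 μg) was pre-incubated with compound or DMSO for 15 min at 30 °C. Splicing ran 90 min at 30 °C after adding 0.5 mM ATP, creatine phosphate and MgCl2. Spliced product was quantified by TaqMan RT-qPCR, normalized to DMSO, and curve-fitted.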

[4] = PANC0504.1 cells, 72 h, −100% cidal, 0% static, 100% maximal growth
[5] = NCI-H1568, 72 h, read-out: CTGlo-ATS GMean GI50 (nM) 72 h NCIH1568.1, NCIH1568.1 cells, 72 h
[6] = NCIH1568.1 cells, 72 h, −100% cidal, 0% static, 100% maximal growth
[7] = NCI-H1568, read-out: CTGlo-ATS GMean GI50 (nM) 72 h NCIH1568.1, NCIH1568.1 cells, 72 h
[8] = 72 h, NCIH1568.1, -100% = cidal, 0% = static, 100% = uninhibited growth
[9] = NCI-H1568, read-out: CTGlo-ATS GMean GI50 (nM) 72 h NCIH1568.1, 72 h, NCIH1568.1
[10] = Ad2.1 pre-mRNA substrate, read-out: qPCR-IVS-ATS GMean IC50 (nM) Ad2.1
[11] = Ad2.2 pre-mRNA substrate, read-out: qPCR-IVS-ATS GMean IC50 (nM) Ad2.2

Structure (SMILES) | CTGlo-ATS Mean MinResponse % 72 h NCIH1568.1 [2, 6] [%] | IC50 (SF3b complexes) [nM] | GI50 [2, 7] [nM] | IC50 [3, 10] [nM] | IC50 [3, 11] [nM] | further results
C/C(=C\c1cc(F)cc(N2CCN(S(=O)(=O)c3cnn(C)c3)CC2)c1)[C@H]1OC(=O)C[C@H](O)CC[C@H](C)[C@@H](OC(=O)N2CCN(C)CC2)/C=C/[C@@H]1C [Compound 111] | −81.303 | 28 | – | – | – | CTGlo-ATS Mean MinResponse % 72 h PANC0504.1 [1, 4]: −71.803%; GI50 ([1]; Panc 05.04, 72 h, read-out: CTGlo-ATS GMean GI50 (nM) 72 h PANC0504.1, PANC0504.1 cells, 72 h): 13.9 nM; GI50 [2, 5]: 12.8 nM
C/C(=C\c1cc(F)cc(Cl)c1)[C@H]1OC(=O)C[C@H](O)CC[C@H](C)[C@@H](OC(=O)N2CCN(C)CC2)/C=C/[C@@H]1C [Compound 167] | −70.414 | 3.19 | 52.4 | – | – | CTGlo-ATS Mean MinResponse % 72 h PANC0504.1 [1, 4]: −85.316%; GI50 ([1]; Panc 05.04, read-out: CTGlo-ATS GMean GI50 (nM) 72 h PANC0504.1, PANC0504.1 cells, 72 h): 34.1 nM
C/C(=C\C1=CCCN(C(=O)OC(C)(C)C)C1)[C@H]1OC(=O)C[C@H](O)CC[C@H](C)[C@@H](OC(=O)N2CCN(C)CC2)/C=C/[C@@H]1C [Compound 219, [(2S,3S,4E,6R,7S,10R)-10-hydroxy-3,7-dimethyl-2-[(E)-1-[1-[(2-methylpropan-2-yl)oxycarbonyl]-3,6-dihydro-2H-pyridin-5-yl]prop-1-en-2-yl]-12-oxo-1-oxacyclododec-4-en-6-yl] 4-methylpiperazine-1-carboxylate] | – | 7.96 | – | – | – | CTGlo-ATS Mean MinResponse % 72 h PANC0504.1 ([1]; 72 h, PANC0504.1, -100% = cidal, 0% = static, 100% = uninhibited growth): −91.460%; GI50 ([1]; Panc 05.04, read-out: CTGlo-ATS GMean GI50 (nM) 72 h PANC0504.1, 72 h, PANC0504.1): 24.6 nM; CTGlo-ATS Mean MinResponse % 72 h NCIH1568.1 [2, 8]: −42.617%; GI50 [2, 9]: 42.4 nM
C/C(=C\c1cc(F)c2nnn(C3CCCCC3)c2c1)[C@H]1OC(=O)C[C@H](O)CC[C@H](C)[C@@H](OC(=O)N2CCN(C)CC2)/C=C/[C@@H]1C [Compound 164] | −87.159 | 3.59 | 1.54 | 20.7 | 27.9 | –
C/C(=C\c1cc(F)c2nnn([C@H]3CCCOC3)c2c1)[C@H]1OC(=O)C[C@H](O)CC[C@H](C)[C@@H](OC(=O)N2CCN(C)CC2)/C=C/[C@@H]1C [Compound 162] | −75.943 | 1.08 | 1.47 | 9.29 | 7.4 | –
C/C(=C\c1cc(F)c2nnn(C3CCS(=O)(=O)CC3)c2c1)[C@H]1OC(=O)C[C@H](O)CC[C@H](C)[C@@H](OC(=O)N2CCN(C)CC2)/C=C/[C@@H]1C [Compound 158] | −87.167 | 13.9 | 6.57 | 18.9 | 18.2 | –
C/C(=C\c1cc(F)cc(N2CCN(C(=O)Cn3cccn3)CC2)c1)[C@H]1OC(=O)C[C@H](O)CC[C@H](C)[C@@H](OC(=O)N2CCN(C3CCCCCC3)CC2)/C=C/[C@@H]1C [Compound 236, [(2S,3S,4E,6R,7S,10R)-2-[(E)-1-[3-fluoro-5-[4-(2-pyrazol-1-ylacetyl)piperazin-1-yl]phenyl]prop-1-en-2-yl]-10-hydroxy-3,7-dimethyl-12-oxo-1-oxacyclododec-4-en-6-yl] 4-cycloheptylpiperazine-1-carboxylate] | – | 84 | – | 49.9 | 56.2 | CTGlo-ATS Mean MinResponse % 72 h NCIH1568.1 [2, 8]: −90.096%; GI50 [2, 9]: 9.92 nM; Ratio Ad2.1/2.2 [3]: 0.889
C/C(=C\c1cc(F)cc(N(C)C2CCN(C(=O)NC(C)C)CC2)c1)[C@H]1OC(=O)C[C@H](O)CC[C@H](C)[C@@H](OC(=O)N2CCN(C)CC2)/C=C/[C@@H]1C [Compound 191] | −83.895 | 3.47 | 6.33 | 11.6 | 7.47 | –
COCCn1cnc2c(F)cc(/C=C(\C)[C@H]3OC(=O)C[C@H](O)CC[C@H](C)[C@@H](OC(=O)N4CCN(C)CC4)/C=C/[C@@H]3C)cc21 [Compound 142] | −69.213 | 1.35 | 2.19 | 12.9 | 6.99 | –
C/C(=C\c1cc(F)c2nnn([C@@H]3CCCOC3)c2c1)[C@H]1OC(=O)C[C@H](O)CC[C@H](C)[C@@H](OC(=O)N2CCN(C)CC2)/C=C/[C@@H]1C [Compound 161] | −85.783 | 2.51 | 0.772 | 8.5 | 6.31 | –
C/C(=C\c1cc(F)cc(N2CCN(C(=O)[C@@H]3CCOC3)CC2)c1)[C@H]1OC(=O)C[C@H](O)CC[C@H](C)[C@@H](OC(=O)N2CCN(C)CC2)/C=C/[C@@H]1C [Compound 152] | −80.509 | 3.83 | – | 16.2 | 8.39 | GI50 [2, 5]: 1.51 nM
C/C(=C\c1cc(F)cc(OC2CCN(S(C)(=O)=O)CC2)c1)[C@H]1OC(=O)C[C@H](O)CC[C@H](C)[C@@H](OC(=O)N2CCN(C)CC2)/C=C/[C@@H]1C [Compound 194] | −75.631 | 10.7 | 6.73 | 30.1 | 25.9 | –
C/C(=C\c1cc(F)c2nnn([C@H]3CC[C@H](O)CC3)c2c1)[C@H]1OC(=O)C[C@H](O)CC[C@H](C)[C@@H](OC(=O)N2CCN(C)CC2)/C=C/[C@@H]1C [Compound 147] | −91.884 | 7.3 | 1.56 | 9.57 | 7.43 | –
C/C(=C\c1cc(F)cc(N2CCN(C(=O)[C@H]3CCOC3)CC2)c1)[C@H]1OC(=O)C[C@H](O)CC[C@H](C)[C@@H](OC(=O)N2CCN(C)CC2)/C=C/[C@@H]1C [Compound 151] | −83.213 | 3.41 | – | 17.9 | 11.4 | GI50 [2, 5]: 2.24 nM
C/C(=C\c1cc(F)cc(N2CCN(C(=O)Cn3cccn3)CC2)c1)[C@H]1OC(=O)C[C@H](O)CC[C@H](C)[C@@H](OC(=O)N2CC[C@@H](F)C2)/C=C/[C@@H]1C [Compound 231, [(2S,3S,4E,6R,7S,10R)-2-[(E)-1-[3-fluoro-5-[4-(2-pyrazol-1-ylacetyl)piperazin-1-yl]phenyl]prop-1-en-2-yl]-10-hydroxy-3,7-dimethyl-12-oxo-1-oxacyclododec-4-en-6-yl] (3R)-3-fluoropyrrolidine-1-carboxylate] | – | 26 | – | 513 | 5.28 | CTGlo-ATS Mean MinResponse % 72 h NCIH1568.1 [2, 8]: −59.209%; GI50 [2, 9]: 22.7 nM; Ratio Ad2.1/2.2 [3]: 97.051
C/C(=C\c1cc(F)cc(N2CCN(C(=O)Cn3cccn3)CC2)c1)[C@H]1OC(=O)C[C@H](O)CC[C@H](C)[C@@H](OC(=O)NCCN(C)C)/C=C/[C@@H]1C [Compound 224, [(2S,3S,4E,6R,7S,10R)-2-[(E)-1-[3-fluoro-5-[4-(2-pyrazol-1-ylacetyl)piperazin-1-yl]phenyl]prop-1-en-2-yl]-10-hydroxy-3,7-dimethyl-12-oxo-1-oxacyclododec-4-en-6-yl] N-[2-(dimethylamino)ethyl]carbamate] | – | 3.14 | – | 41.1 | 5.88 | CTGlo-ATS Mean MinResponse % 72 h NCIH1568.1 [2, 8]: −61.875%; GI50 ([2]; NCI-H1568, 72 h, read-out: CTGlo-ATS GMean GI50 (nM) 72 h NCIH1568.1, 72 h, NCIH1568.1): 16.4 nM; Ratio Ad2.1/2.2 [3]: 6.991
C/C(=C\c1cc(F)cc(NC2CCN(S(C)(=O)=O)CC2)c1)[C@H]1OC(=O)C[C@H](O)CC[C@H](C)[C@@H](OC(=O)N2CCN(C)CC2)/C=C/[C@@H]1C [Compound 173] | −79.437 | 21 | – | 88.1 | 28.4 | GI50 [2, 5]: 15.2 nM
C/C(=C\c1cc(F)cc(N(C)C2CCN(C(=O)c3cnccn3)CC2)c1)[C@H]1OC(=O)C[C@H](O)CC[C@H](C)[C@@H](OC(=O)N2CCN(C)CC2)/C=C/[C@@H]1C [Compound 189] | −76.052 | 6.8 | 9.53 | 16.9 | 10.3 | –
C/C(=C\c1cc(F)c2nnn([C@H](C)CO)c2c1)[C@H]1OC(=O)C[C@H](O)CC[C@H](C)[C@@H](OC(=O)N2CCN(C)CC2)/C=C/[C@@H]1C [Compound 150] | −68.000 | 1.32 | 2.19 | 8.58 | 11 | –
